Data published in patent publication US20200278355A1, “CONJUGATED PROTEINS AND USES THEREOF” (THE SCRIPPS RESEARCH INSTITUTE, priority 2017, published 2020).

Legend:
FLAG-NR0B1 (WT) = biological target: T1, FLAG-NR0B1 (WT) (Homo sapiens, UniProt P51843); assay: Gel-based BPK-29yne labeling of NR0B1 and competition in HEK293T cells; type: cell-based; conditions: 3 h pre-treatment, then BPK-29yne 30 min
T1 construct: expressed in transfected cells; host or cells: HEK-293T, transient, pRK5-based vector
Experimental: 4×10^6 HEK-293T cells were seeded in poly-L-lysine coated 10 cm plates and transfected the next day with 5 μg of FLAG-NR0B1, FLAG-NR0B1-C274V, or FLAG-METAP2 cDNA in a pRK5-based expression vector. 48 h after transfection, cells were treated with indicated concentrations of BPK-29 or control compound BPK-27 for 3 h at 37° C. in DMEM containing 10% FBS and supplements as described in Cell Culture. BPK-29yne (5 μM) was then added and incubated for an additional 30 min at 37° C. FLAG immunoprecipitates were prepared as described above and following washes, the FLAG resin was resuspended in PBS (100 μL). To each sample, 12 μL of a freshly prepared “click” reagent mixture was added to conjugate the fluorophore to probe-labeled proteins. […] Samples were boiled for 5 min and proteins were resolved by SDS-PAGE (10% acrylamide), and visualized by in-gel fluorescence on a Bio-Rad ChemiDoc MP flatbed fluorescence scanner. Samples were also analyzed by immunoblotting. Recombinantly expressed FLAG-tagged protein levels were determined with the FLAG antibody (Sigma). Gel fluorescence and imaging was processed using Image Lab (v 5.2.1) software.

TXNDC12 = biological target: T2, TXNDC12 (Homo sapiens, UniProt O95881); assay: ABPP-SILAC BPK-29yne competition in H460 cells: TXNDC12; type: cell-based; conditions: 20 μM
T2 construct: endogenous in cells; host or cells: H460
Experimental: Isotopically labeled H460 cell lines were generated as described above. Light and heavy cells were treated with compounds (20 μM) or DMSO, respectively, for 3 h, followed by labeling with the BPK-29yne (5 μM) for 30 min. Cells were washed once ice-cold PBS and lysed in 1% Triton 100-X dissolved in PBS with protease inhibitors (Sigma) by sonication. Lysate was adjusted to 1.5 mg ml^−1 in 500 μL. Samples were conjugated by CuAAC to Biotin-PEG4-azide (5 μL of 10 mM stocks in DMSO, final concentration=100 μM). CuAAC “click” mix contained TCEP, TBTA ligand and CuSO4 as detailed for isoTOP-ABPP sample preparation. Samples were further processed as detailed in: isoTOP-ABPP streptavidin enrichment and isoTOP-ABPP trypsin TEV digestion with the following exception: after overnight incubation at 37° C. with trypsin, tryptic digests were separated from the beads with Micro Bio-Spin columns (Bio-Rad) by centrifugation (1,000×g, 1 min). Beads were rinsed once with water (200 μL) and combined with tryptic digests. […]
The MS2 spectra data were extracted and searched using RAW Convertor and ProLuCID algorithm as described in isoTOP-ABPP peptide and protein quantification. […] Ratios of heavy/light (DMSO/test compound) peaks were calculated using in-house CIMAGE software. […] The mean R values and standard deviation for multiple biological experiments were calculated from the average ratios from each replicate. […]

T1 sequence (P51843 whole entry): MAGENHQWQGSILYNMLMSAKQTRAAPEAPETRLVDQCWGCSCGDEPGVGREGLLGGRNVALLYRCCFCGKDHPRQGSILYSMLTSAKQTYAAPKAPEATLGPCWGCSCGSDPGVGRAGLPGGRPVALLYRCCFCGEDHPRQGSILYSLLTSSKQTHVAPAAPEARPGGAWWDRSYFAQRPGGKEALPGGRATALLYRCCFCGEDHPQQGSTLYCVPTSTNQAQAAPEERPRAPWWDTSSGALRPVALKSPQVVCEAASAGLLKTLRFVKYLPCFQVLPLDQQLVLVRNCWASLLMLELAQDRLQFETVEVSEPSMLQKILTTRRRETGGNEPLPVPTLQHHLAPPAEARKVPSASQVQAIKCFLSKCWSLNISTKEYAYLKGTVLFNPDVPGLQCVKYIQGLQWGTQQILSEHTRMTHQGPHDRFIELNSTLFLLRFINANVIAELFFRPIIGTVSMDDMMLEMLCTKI
T2 sequence (O95881 27-172): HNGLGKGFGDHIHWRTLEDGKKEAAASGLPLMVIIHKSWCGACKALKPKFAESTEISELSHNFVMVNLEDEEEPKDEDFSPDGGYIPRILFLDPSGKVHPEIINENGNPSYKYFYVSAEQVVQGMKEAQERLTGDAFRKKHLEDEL

With `O=C(c1ccc(N2CCOCC2)cc1)N1CCCC(N(Cc2ccccc2)C(=O)CCl)CC1` (centres unmarked) [BPK-29, N-benzyl-2-chloro-N-(1-(4-morpholinobenzoyl)azepan-4-yl)acetamide] the “blockade of BPK-29yne labeling of NR0B1 by pre-treatment” value (FLAG-NR0B1 (WT)) was “blocked by pre-treatment with BPK-29 in a concentration dependent manner” and the “BPK-29-competed BPK-29yne analysis” value (TXNDC12) was “Yes (Competed defined as showing R value ≥ 2.5 at 20 μM of test compound)”.
